Data on seven molecules can be found in article PMC6171417, “Carbonic anhydrase inhibition with a series of novel benzenesulfonamide-triazole conjugates” (Journal of Enzyme Inhibition and Medicinal Chemistry, 2018).

One experiment concerns MOLT-4. Nature of the experiment: cells. Details: species or system NCI human tumour cell line panel; NCI one-dose anti-proliferative screen, human tumour cell line panel, growth inhibition percent (GI%). As to conditions: Homo sapiens, MOLT-4; growth inhibition (GI%), single dose. The method, then:
(§1) Ten of the newly synthesised 1,2,3-triazolo benzenesulfonamide derivatives were selected by NCI (Bethesda, MD) for evaluating their anti-proliferative activity. The selected compounds were subjected to a primary in vitro one-dose ([…]) anti-proliferative assay against 57 human tumour cell lines following the previously reported method[30] and their obtained growth inhibition percent (GI%) are presented in Table 2. A subset of ten triazolo-benzenesulfonamides (3, 5, 6, 7, 9, 11, 16–18, and 20) were selected and subjected to an in vitro anti-proliferative screening against a panel of 57 cancer cell lines at NCI at an initial high dose ([…]). The human cell lines used were derived from nine cancer types: leukaemia, lung, colon, CNS, melanoma, ovarian, renal, prostate and breast cancers.

The test system of a further experiment is SK-MEL-2. Nature of the experiment: cells. Details: species or system NCI human tumour cell line panel; NCI one-dose anti-proliferative screen, human tumour cell line panel, growth inhibition percent (GI%). The settings on record: Homo sapiens, SK-MEL-2; growth inhibition (GI%), single dose. The method, then: as §1
The subject of the next experiment is MDA-MB-231/ATCC. Nature of the experiment: cells. Also noted: species or system NCI human tumour cell line panel; NCI one-dose anti-proliferative screen, human tumour cell line panel, growth inhibition percent (GI%). The settings on record: Homo sapiens, MDA-MB-231; growth inhibition (GI%), single dose. The method, then: as §1
Another experiment has as its system IGROV1. The experiment in a line: cells. Also noted: species or system NCI human tumour cell line panel; NCI one-dose anti-proliferative screen, human tumour cell line panel, growth inhibition percent (GI%). The settings on record: Homo sapiens, IGROV-1; growth inhibition (GI%), single dose. The method, then:
as §1

Another experiment concerns CCRF-CEM. Nature of the experiment: cells. Also noted: species or system NCI human tumour cell line panel; NCI one-dose anti-proliferative screen, human tumour cell line panel, growth inhibition percent (GI%). The settings on record: Homo sapiens, CCRF-CEM; growth inhibition (GI%), single dose. The method, then:
as §1

The test system of another experiment is SN12C. Nature of the experiment: cells. Also noted: species or system NCI human tumour cell line panel; NCI one-dose anti-proliferative screen, human tumour cell line panel, growth inhibition percent (GI%). The settings on record: Homo sapiens, SN12C; growth inhibition (GI%), single dose. The method, then: as §1
A further experiment deals with EKVX. Nature of the experiment: cells. Details: species or system NCI human tumour cell line panel; NCI one-dose anti-proliferative screen, human tumour cell line panel, growth inhibition percent (GI%). As to conditions: Homo sapiens, EKVX; growth inhibition (GI%), single dose. The method, then: as §1
In the next experiment the test system is KM12. The experiment in a line: cells. Also noted: species or system NCI human tumour cell line panel; NCI one-dose anti-proliferative screen, human tumour cell line panel, growth inhibition percent (GI%). The settings on record: Homo sapiens, KM12; growth inhibition (GI%), single dose. The method, then:
as §1

For the next experiment, the system named is LOX IMVI. Nature of the experiment: cells. Details: species or system NCI human tumour cell line panel; NCI one-dose anti-proliferative screen, human tumour cell line panel, growth inhibition percent (GI%). As to conditions: Homo sapiens, LOX IMVI; growth inhibition (GI%), single dose. The method, then: as §1
A further experiment has as its system HCT-15. Nature of the experiment: cells. As to conditions: Homo sapiens, HCT-15; growth inhibition (GI%), single dose. Also noted: species or system NCI human tumour cell line panel; NCI one-dose anti-proliferative screen, human tumour cell line panel, growth inhibition percent (GI%). The method, then:
as §1

For another experiment, the system named is UACC-62. Nature of the experiment: cells. Also noted: species or system NCI human tumour cell line panel; NCI one-dose anti-proliferative screen, human tumour cell line panel, growth inhibition percent (GI%). The settings on record: Homo sapiens, UACC-62; growth inhibition (GI%), single dose. The method, then: as §1
The subject of another experiment is NCI-H23. Nature of the experiment: cells. The settings on record: Homo sapiens, NCI-H23; growth inhibition (GI%), single dose. Details: species or system NCI human tumour cell line panel; NCI one-dose anti-proliferative screen, human tumour cell line panel, growth inhibition percent (GI%). The method, then:
as §1

A further experiment has as its system HOP-92. Nature of the experiment: cells. Also noted: species or system NCI human tumour cell line panel; NCI one-dose anti-proliferative screen, human tumour cell line panel, growth inhibition percent (GI%). As to conditions: Homo sapiens, HOP-92; growth inhibition (GI%), single dose. The method, then: as §1
The next experiment has as its system SNB-75. The experiment in a line: cells. Details: species or system NCI human tumour cell line panel; NCI one-dose anti-proliferative screen, human tumour cell line panel, growth inhibition percent (GI%). The settings on record: Homo sapiens, SNB-75; growth inhibition (GI%), single dose. The method, then:
as §1

In another experiment the test system is ACHN. The experiment in a line: cells. Details: species or system NCI human tumour cell line panel; NCI one-dose anti-proliferative screen, human tumour cell line panel, growth inhibition percent (GI%). As to conditions: Homo sapiens, ACHN; growth inhibition (GI%), single dose. The method, then:
as §1

A further experiment deals with SNB-19. The experiment in a line: cells. Also noted: species or system NCI human tumour cell line panel; NCI one-dose anti-proliferative screen, human tumour cell line panel, growth inhibition percent (GI%). As to conditions: Homo sapiens, SNB-19; growth inhibition (GI%), single dose. The method, then:
as §1

The test system of the next experiment is OVCAR-4. The experiment in a line: cells. Also noted: species or system NCI human tumour cell line panel; NCI one-dose anti-proliferative screen, human tumour cell line panel, growth inhibition percent (GI%). The settings on record: Homo sapiens, OVCAR-4; growth inhibition (GI%), single dose. The method, then:
as §1

For the next experiment, the target named is T1, hCA IV (Homo sapiens, UniProt P22748).
T1 construct: gene CA4; recombinant, obtained in-house as reported earlier
T1 sequence (P22748 19-284): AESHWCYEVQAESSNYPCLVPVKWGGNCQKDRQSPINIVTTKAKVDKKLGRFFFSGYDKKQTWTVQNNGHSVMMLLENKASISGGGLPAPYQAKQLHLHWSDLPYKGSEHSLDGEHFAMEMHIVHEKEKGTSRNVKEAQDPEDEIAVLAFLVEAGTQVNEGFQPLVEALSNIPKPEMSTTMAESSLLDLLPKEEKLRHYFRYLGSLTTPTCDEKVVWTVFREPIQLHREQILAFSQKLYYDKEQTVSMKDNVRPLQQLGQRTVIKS
The experiment in a line: stopped-flow CO2 hydrase assay. The format is biochemical. An excerpt:
stopped-flow CO2 hydrase assay on hCA IV

A further experiment concerns NCI/ADR-RES. Nature of the experiment: cells. Also noted: species or system NCI human tumour cell line panel; NCI one-dose anti-proliferative screen, human tumour cell line panel, growth inhibition percent (GI%). As to conditions: Homo sapiens, NCI/ADR-RES; growth inhibition (GI%), single dose. The method, then:
as §1

In another experiment the test system is MDA-MB-435. Nature of the experiment: cells. Also noted: species or system NCI human tumour cell line panel; NCI one-dose anti-proliferative screen, human tumour cell line panel, growth inhibition percent (GI%). As to conditions: Homo sapiens, MDA-MB-435; growth inhibition (GI%), single dose. The method, then:
as §1

What is called inhibition is how much of the control response was suppressed. Broadly, the Ki is the equilibrium dissociation constant of an inhibitor or competing ligand from its target.

Turning to `CN(C)c1ccc(-c2nc3c(nnn3-c3ccc(S(N)(=O)=O)cc3)c(N)c2C#N)cc1` [compound 17, 4-(7-amino-6-cyano-5-(4-(dimethylamino)phenyl)-3H-[1,2,3]triazolo[4,5-b]pyridin-3-yl)benzenesulfonamide], the inhibition at 10 µM with MOLT-4 is 2.3%; in the experiment on SK-MEL-2, 2.3%; with MDA-MB-231/ATCC, 18%; with IGROV1, 12.1%; in the experiment with CCRF-CEM, 11.4%; in the experiment with SN12C, 4.7%. For the same molecule, the inhibition at 10 µM with EKVX was found to be 17.2%; in the experiment with KM12, 5.9%; in the experiment with LOX IMVI, 9.6%; in the experiment with HCT-15 it was 1.2%; in the experiment on UACC-62, 11.6%; with NCI-H23, 9.8%. The inhibition at 10 µM with HOP-92 came out at 18.5%; in the experiment with SNB-75, 21.6%; with ACHN, 9.3%; with SNB-19, 0.8%; in the experiment on OVCAR-4 it was 0.8%. The same molecule registered a Ki on hCA IV of 473 nM.

For the molecule `N#Cc1nnn(-c2ccc(S(N)(=O)=O)cc2)c1NS(=O)(=O)c1ccccc1` [compound 11, N-(4-cyano-1-(4-sulfamoylphenyl)-1H-1,2,3-triazol-5-yl)benzenesulfonamide], the inhibition at 10 µM in the experiment on MOLT-4 came out at 11.2%; with IGROV1 it was 3.3%; with CCRF-CEM it was 6.7%; with SN12C it was 1.6%; in the experiment on EKVX it was 2%; with NCI/ADR-RES, 3.2%. The inhibition at 10 µM with UACC-62 was determined as 5.9%; in the experiment on NCI-H23, 4.1%; in the experiment with HOP-92 it was 4.2%; in the experiment on SNB-75 it was 10.2%; in the experiment with SNB-19 it was 2.8%. On hCA IV, this molecule returned a Ki of 4520 nM.

In the case of `Nc1nc(=S)[nH]c2c1nnn2-c1ccc(S(N)(=O)=O)cc1` [compound 18, 4-(7-amino-5-thioxo-4,5-dihydro-3H-[1,2,3]triazolo[4,5-d]pyrimidin-3-yl)benzenesulfonamide], the inhibition at 10 µM came out at 21.3% with MOLT-4; 14.8% with MDA-MB-231/ATCC; 17.8% with CCRF-CEM; 1.2% in the experiment with SN12C; 3.7% in the experiment on EKVX; 7.5% in the experiment on LOX IMVI. In addition, the inhibition at 10 µM was found to be 5.6% in the experiment with UACC-62; 4.7% in the experiment with NCI-H23; 10.6% in the experiment with HOP-92; 13.9% in the experiment on SNB-75; 1.7% in the experiment on SNB-19; 7.9% in the experiment on OVCAR-4. The same molecule came in with a Ki at hCA IV of 489 nM.

For the molecule `CCn1c(=S)[nH]c2c(nnn2-c2ccc(S(N)(=O)=O)cc2)c1=N` [compound 20, 4-(6-ethyl-7-imino-5-thioxo-4,5,6,7-tetrahydro-3H-[1,2,3]triazolo[4,5-d]pyrimidin-3-yl)benzenesulfonamide], the inhibition at 10 µM with MOLT-4 was 9.1%; with SK-MEL-2 it was 8.2%; in the experiment with CCRF-CEM, 20.9%; with SN12C, 0.9%; with EKVX, 3.1%; with LOX IMVI, 4.6%. Besides, the inhibition at 10 µM in the experiment on NCI/ADR-RES stood at 2.2%; in the experiment on UACC-62, 4.3%; in the experiment on NCI-H23, 9.4%; in the experiment with HOP-92 it was 18%; in the experiment on SNB-75, 3.3%; in the experiment with SNB-19, 1.9%. On hCA IV, this molecule showed a Ki of 875 nM.

`N#Cc1c(-c2ccc(Cl)cc2)nc2c(nnn2-c2ccc(S(N)(=O)=O)cc2)c1N` [compound 16, 4-(7-amino-5-(4-chlorophenyl)-6-cyano-3H-[1,2,3]triazolo[4,5-b]pyridin-3-yl)benzenesulfonamide]: the inhibition at 10 µM in the experiment with MOLT-4 amounted to 17.6%; in the experiment on MDA-MB-231/ATCC, 24.2%; in the experiment with IGROV1, 16.4%; in the experiment on CCRF-CEM it was 16.4%; in the experiment with SN12C, 8.9%; in the experiment with EKVX, 39.5%. Besides, the inhibition at 10 µM with LOX IMVI came out at 20.4%; in the experiment with NCI/ADR-RES, 4.2%; in the experiment on HCT-15 it was 1.6%; in the experiment on UACC-62 it was 15.5%; with NCI-H23 it was 11.2%; in the experiment with HOP-92, 35.4%. Further, the inhibition at 10 µM is 20% with SNB-75, 2.9% in the experiment with MDA-MB-435, 3.4% in the experiment on SNB-19 and 21.6% with OVCAR-4. Also, on hCA IV, the Ki is 788 nM.

As to `N#Cc1nnn(-c2ccc(S(N)(=O)=O)cc2)c1N` [compound 3, 3], the inhibition at 10 µM in the experiment with MOLT-4 stood at 13.3%; in the experiment with CCRF-CEM, 15.3%; with SN12C, 1.1%; in the experiment on EKVX, 8.7%; in the experiment with LOX IMVI, 6.1%; in the experiment with UACC-62, 5.5%. In addition, the inhibition at 10 µM came to 8.2% in the experiment with HOP-92; 15% with SNB-75; 1.3% in the experiment with ACHN; 3.1% with MDA-MB-435; 2.9% in the experiment on SNB-19; 4.1% with OVCAR-4.

On to `N#Cc1nnn(-c2ccc(S(N)(=O)=O)cc2)c1/N=C/c1ccc(Cl)cc1` [compound 9, 9], for which the inhibition at 10 µM in the experiment on MOLT-4 was found to be 6.9%; in the experiment with CCRF-CEM, 15.9%; in the experiment with EKVX it was 4.2%; in the experiment with KM12, 0.5%; with NCI/ADR-RES it was 5.4%; with HCT-15 it was 4.3%. In addition, the inhibition at 10 µM in the experiment with UACC-62 is 6%; in the experiment on HOP-92, 12.8%; with SNB-75 it was 2.9%; in the experiment with MDA-MB-435, 3.4%.
